Experiment in all cases: KINOMEscan (ScanMAX) kinase profiling
Holding throughout (format): binding

Assay [1] has as its target T1, panel of 468 kinases (Homo sapiens, UniProt P20794).
T1 construct: purchased KINOMEscan (ScanMAX) service
T1 sequence (P20794 1-623): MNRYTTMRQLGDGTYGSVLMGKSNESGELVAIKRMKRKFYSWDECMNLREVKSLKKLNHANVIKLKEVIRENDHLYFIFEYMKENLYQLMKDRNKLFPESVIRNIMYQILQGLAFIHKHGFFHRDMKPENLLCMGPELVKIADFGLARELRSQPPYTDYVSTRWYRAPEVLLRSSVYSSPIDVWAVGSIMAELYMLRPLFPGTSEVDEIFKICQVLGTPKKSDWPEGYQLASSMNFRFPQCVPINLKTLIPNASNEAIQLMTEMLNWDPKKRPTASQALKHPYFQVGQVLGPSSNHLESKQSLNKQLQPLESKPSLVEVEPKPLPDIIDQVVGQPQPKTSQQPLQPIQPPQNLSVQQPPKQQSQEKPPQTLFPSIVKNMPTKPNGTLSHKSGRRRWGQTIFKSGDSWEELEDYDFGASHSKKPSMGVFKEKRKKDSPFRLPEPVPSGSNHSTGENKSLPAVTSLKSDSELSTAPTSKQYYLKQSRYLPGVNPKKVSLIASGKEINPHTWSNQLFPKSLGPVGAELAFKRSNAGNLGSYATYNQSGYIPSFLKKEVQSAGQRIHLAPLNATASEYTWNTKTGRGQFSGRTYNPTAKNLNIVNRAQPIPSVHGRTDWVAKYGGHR
The settings on record: MAK; 1 μM; read-out: % control.

Assay [2] concerns the target T2, panel of 468 kinases (Homo sapiens, UniProt P36888, D835V).
T2 construct: purchased KINOMEscan (ScanMAX) service
T2 sequence (P36888 27-993 D835V): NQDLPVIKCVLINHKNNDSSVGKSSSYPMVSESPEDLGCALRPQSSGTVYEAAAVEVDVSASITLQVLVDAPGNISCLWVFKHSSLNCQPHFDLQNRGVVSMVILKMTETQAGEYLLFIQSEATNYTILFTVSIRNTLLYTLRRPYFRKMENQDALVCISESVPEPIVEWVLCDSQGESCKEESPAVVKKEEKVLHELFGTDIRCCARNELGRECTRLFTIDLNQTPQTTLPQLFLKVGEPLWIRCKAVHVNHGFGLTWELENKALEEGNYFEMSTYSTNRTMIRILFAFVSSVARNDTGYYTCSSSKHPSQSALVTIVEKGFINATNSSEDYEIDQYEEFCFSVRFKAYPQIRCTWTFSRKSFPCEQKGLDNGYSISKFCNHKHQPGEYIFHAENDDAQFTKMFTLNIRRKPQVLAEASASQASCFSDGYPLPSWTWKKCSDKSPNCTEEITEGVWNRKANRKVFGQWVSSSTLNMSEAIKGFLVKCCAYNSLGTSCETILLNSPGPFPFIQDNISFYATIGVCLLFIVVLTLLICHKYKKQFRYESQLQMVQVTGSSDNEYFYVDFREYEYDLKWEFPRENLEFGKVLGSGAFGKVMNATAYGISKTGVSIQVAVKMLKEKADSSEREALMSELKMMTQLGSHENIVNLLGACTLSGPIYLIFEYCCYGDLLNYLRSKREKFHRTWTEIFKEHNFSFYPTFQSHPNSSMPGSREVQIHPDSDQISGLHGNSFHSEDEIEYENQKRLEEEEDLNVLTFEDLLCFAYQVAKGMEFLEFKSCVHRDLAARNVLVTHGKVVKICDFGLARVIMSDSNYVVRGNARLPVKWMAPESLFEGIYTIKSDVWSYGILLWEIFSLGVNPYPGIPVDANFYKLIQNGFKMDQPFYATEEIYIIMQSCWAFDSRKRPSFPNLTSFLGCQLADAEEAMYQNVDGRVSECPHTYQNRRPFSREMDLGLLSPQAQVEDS
The settings on record: FLT3(D835V); 1 μM; read-out: % control.

Assay [3] has as its target T3, panel of 468 kinases (Homo sapiens, UniProt P49336).
T3 construct: purchased KINOMEscan (ScanMAX) service
The following applies: CDK8; 1 μM; read-out: % control.

For assay [4], the target named is T4, panel of 468 kinases (Homo sapiens, UniProt P51451).
T4 construct: purchased KINOMEscan (ScanMAX) service
T4 sequence (P51451 whole entry): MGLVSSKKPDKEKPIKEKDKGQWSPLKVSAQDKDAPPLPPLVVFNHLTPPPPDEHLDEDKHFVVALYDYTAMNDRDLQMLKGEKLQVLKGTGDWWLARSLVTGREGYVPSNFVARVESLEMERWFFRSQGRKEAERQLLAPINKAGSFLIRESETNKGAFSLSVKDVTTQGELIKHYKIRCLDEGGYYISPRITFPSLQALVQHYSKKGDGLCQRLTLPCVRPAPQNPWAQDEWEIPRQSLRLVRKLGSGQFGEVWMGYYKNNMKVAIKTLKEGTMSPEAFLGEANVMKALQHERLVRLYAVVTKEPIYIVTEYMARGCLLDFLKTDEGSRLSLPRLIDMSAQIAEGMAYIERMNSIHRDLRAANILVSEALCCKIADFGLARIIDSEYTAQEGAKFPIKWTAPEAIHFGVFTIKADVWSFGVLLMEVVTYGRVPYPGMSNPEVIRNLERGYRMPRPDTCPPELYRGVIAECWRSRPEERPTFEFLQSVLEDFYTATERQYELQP
The following applies: BLK; 1 μM; read-out: % control.

The target in assay [5] is T5, panel of 468 kinases (Homo sapiens, UniProt P51812).
T5 construct: purchased KINOMEscan (ScanMAX) service
T5 sequence (P51812 whole entry): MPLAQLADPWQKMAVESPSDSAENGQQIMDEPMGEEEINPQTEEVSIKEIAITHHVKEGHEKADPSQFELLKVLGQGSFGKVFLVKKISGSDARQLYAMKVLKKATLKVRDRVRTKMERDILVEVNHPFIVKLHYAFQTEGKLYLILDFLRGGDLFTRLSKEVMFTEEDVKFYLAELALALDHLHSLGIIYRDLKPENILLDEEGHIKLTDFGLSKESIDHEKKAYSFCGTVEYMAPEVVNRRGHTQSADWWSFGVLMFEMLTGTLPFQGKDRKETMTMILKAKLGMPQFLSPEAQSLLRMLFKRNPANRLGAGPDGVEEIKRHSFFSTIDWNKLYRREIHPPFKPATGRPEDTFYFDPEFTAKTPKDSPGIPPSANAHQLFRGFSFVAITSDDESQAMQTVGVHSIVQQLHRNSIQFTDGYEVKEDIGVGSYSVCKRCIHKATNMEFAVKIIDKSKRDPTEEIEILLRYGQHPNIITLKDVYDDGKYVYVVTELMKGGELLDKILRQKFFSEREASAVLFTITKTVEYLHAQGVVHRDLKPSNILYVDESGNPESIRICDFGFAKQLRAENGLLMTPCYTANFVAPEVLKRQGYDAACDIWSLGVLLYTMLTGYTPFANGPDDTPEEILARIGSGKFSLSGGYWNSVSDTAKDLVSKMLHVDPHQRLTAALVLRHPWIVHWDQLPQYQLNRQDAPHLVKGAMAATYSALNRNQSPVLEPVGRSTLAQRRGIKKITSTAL
The settings on record: 1 μM, read-out: % control.

In assay [6] the target is T6, panel of 468 kinases (Homo sapiens, UniProt Q14680).
T6 construct: purchased KINOMEscan (ScanMAX) service
T6 sequence (Q14680 whole entry): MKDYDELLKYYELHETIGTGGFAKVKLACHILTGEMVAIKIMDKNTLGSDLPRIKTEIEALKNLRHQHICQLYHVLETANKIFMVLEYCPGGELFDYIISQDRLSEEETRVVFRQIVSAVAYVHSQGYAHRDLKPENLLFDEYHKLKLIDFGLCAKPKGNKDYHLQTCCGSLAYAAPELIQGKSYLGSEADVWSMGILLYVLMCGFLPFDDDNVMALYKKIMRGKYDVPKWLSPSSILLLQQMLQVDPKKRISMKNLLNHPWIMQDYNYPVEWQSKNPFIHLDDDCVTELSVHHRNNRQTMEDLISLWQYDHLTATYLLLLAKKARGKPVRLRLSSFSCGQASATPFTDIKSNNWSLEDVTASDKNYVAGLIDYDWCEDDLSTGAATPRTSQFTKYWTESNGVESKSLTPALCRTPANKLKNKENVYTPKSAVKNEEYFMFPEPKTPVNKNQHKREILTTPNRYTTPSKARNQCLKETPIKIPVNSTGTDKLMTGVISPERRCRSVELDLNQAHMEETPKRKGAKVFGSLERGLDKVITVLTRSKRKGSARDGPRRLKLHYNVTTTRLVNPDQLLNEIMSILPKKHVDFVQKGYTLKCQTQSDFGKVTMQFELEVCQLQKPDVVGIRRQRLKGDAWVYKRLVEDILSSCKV
The settings on record: MELK; 1 μM; read-out: % control.

Assay [7] concerns the target T7, panel of 468 kinases (Homo sapiens, UniProt Q86UE8).
T7 construct: purchased KINOMEscan (ScanMAX) service
The following applies: TLK2; 1 μM; read-out: % control.

The target in assay [8] is T8, panel of 468 kinases (Homo sapiens, UniProt Q8NI60).
T8 construct: purchased KINOMEscan (ScanMAX) service
T8 sequence (Q8NI60 163-647): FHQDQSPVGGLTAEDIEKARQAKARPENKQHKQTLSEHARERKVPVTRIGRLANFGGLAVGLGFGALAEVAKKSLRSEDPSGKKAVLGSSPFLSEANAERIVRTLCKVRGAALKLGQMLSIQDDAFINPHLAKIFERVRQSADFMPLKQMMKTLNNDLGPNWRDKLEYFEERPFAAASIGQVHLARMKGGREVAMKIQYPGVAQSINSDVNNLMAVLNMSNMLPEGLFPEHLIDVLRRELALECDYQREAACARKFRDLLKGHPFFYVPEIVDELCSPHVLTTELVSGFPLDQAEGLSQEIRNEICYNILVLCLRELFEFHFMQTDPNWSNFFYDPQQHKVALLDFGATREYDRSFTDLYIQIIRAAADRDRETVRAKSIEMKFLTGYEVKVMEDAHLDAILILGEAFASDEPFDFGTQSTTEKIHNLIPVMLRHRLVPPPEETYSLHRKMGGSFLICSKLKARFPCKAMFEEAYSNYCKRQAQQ
The settings on record: ADCK3; 1 μM; read-out: % control.

Assay [9] concerns the target T9, panel of 468 kinases (Homo sapiens, UniProt Q8WU08).
T9 construct: purchased KINOMEscan (ScanMAX) service
The following applies: YANK1; 1 μM; read-out: % control.

The target of assay [10] is T10, panel of 468 kinases (Homo sapiens, UniProt Q9HBH9).
T10 construct: purchased KINOMEscan (ScanMAX) service
T10 sequence (Q9HBH9 whole entry): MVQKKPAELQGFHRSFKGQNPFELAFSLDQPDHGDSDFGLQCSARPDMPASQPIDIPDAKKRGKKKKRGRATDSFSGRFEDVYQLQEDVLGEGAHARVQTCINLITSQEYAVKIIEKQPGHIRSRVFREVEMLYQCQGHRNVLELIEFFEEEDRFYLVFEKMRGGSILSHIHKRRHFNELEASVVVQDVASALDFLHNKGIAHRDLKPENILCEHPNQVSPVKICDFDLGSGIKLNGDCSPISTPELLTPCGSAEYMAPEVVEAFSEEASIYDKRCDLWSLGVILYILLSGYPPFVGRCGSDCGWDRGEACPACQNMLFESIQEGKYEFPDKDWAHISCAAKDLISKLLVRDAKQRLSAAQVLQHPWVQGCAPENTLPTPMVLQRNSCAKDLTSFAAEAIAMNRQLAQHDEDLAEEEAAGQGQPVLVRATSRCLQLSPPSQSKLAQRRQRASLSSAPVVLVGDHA
The settings on record: MKNK2; 1 μM; read-out: % control.

For assay [11], the target named is T11, panel of 468 kinases (Homo sapiens, UniProt Q9HC98).
T11 construct: purchased KINOMEscan (ScanMAX) service
T11 sequence (Q9HC98 whole entry): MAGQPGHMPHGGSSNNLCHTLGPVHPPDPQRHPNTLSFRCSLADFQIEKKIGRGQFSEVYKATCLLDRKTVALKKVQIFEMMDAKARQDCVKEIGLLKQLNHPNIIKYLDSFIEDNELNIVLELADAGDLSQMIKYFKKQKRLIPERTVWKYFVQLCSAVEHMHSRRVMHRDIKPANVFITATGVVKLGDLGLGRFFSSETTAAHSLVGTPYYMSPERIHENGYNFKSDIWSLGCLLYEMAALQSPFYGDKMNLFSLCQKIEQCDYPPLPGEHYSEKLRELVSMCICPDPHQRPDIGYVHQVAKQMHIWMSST
The settings on record: NEK6; 1 μM; read-out: % control.

Read-outs that look alike come from different tables or passages of the source.

These results are taken from patent US12479847B2 (DANA-FARBER CANCER INSTITUTE, INC., priority 2019, dated 2025).

T3 sequence (P49336 whole entry): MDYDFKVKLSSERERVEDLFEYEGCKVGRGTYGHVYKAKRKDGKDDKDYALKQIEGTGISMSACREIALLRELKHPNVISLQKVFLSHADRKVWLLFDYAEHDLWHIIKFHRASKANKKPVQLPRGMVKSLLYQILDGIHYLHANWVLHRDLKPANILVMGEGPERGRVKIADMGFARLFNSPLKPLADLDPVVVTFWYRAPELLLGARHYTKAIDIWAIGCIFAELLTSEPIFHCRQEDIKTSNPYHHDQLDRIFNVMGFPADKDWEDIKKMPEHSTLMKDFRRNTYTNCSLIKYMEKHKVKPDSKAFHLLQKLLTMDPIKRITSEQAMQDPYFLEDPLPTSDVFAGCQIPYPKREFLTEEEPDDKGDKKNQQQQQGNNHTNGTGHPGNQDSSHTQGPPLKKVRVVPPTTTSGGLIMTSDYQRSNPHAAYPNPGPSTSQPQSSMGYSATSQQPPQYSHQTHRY
T9 sequence (Q8WU08 whole entry): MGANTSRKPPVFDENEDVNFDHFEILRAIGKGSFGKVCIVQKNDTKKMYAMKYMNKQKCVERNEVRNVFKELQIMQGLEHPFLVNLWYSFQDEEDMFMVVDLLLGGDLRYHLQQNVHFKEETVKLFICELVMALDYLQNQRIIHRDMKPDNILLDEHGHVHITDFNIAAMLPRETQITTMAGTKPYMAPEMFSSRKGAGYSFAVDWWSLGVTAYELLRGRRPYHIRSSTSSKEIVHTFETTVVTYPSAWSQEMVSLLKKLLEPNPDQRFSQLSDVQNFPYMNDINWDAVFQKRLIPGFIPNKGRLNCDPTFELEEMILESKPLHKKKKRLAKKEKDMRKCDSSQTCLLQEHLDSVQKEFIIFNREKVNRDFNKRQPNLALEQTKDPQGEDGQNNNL
T7 sequence (Q86UE8 whole entry): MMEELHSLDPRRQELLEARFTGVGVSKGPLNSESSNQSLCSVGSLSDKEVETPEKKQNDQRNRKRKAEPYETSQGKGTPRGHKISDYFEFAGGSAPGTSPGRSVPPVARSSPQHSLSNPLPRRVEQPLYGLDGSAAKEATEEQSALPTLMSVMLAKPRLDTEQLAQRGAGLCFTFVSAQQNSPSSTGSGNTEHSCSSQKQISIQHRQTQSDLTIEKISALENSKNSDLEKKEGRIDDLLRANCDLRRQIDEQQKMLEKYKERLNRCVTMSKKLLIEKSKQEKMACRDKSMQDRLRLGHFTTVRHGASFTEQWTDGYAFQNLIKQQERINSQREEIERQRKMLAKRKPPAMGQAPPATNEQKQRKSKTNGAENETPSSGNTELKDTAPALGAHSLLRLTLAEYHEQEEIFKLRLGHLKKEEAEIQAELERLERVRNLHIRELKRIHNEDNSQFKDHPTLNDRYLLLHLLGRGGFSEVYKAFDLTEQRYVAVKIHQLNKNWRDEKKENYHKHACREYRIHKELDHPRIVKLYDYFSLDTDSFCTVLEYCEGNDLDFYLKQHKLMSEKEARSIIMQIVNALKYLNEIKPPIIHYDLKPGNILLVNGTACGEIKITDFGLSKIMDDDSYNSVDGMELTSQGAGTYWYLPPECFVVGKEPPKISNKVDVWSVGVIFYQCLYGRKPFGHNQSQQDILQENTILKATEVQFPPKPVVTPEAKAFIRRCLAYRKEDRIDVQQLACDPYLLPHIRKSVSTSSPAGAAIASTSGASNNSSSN

Turning to `CNc1nc(Nc2ccc(C(=O)N3CCC(N4CCOCC4)CC3)c3c2OCO3)nc2[nH]cc(Cl)c12` [Compound 75, (7-((5-chloro-4-(methylamino)-7H-pyrrolo[2,3-d]pyrimidin-2-yl)amino)benzo[d][1,3]dioxol-4-yl)(4-morpholinopiperidin-1-yl)methanone], the remaining binding at 1 µM on panel of 468 kinases [1] came to 100%; on panel of 468 kinases [2] it was 1.8%; at panel of 468 kinases [3], 100%; on panel of 468 kinases [4], 100%; on panel of 468 kinases [5] (RSK2(Kin.Dom.1-N-terminal)), 71%; at panel of 468 kinases [5] (RSK2(Kin.Dom.2-C-terminal)) it was 31%. The remaining binding at 1 µM at panel of 468 kinases [6] turned out to be 30%; at panel of 468 kinases [7], 100%; on panel of 468 kinases [8] it was 100%; on panel of 468 kinases [9], 100%; on panel of 468 kinases [10], 10%; at panel of 468 kinases [11], 100%.

In the case of `CNc1nc(Nc2ccc(P3(=O)CCN(C4CCOCC4)CC3)cc2OC)nc2[nH]cc(Cl)c12` [Compound 77, 4-(4-((5-chloro-4-(methylamino)-7H-pyrrolo[2,3-d]pyrimidin-2-yl)amino)-3-methoxyphenyl)-1-(tetrahydro-2H-pyran-4-yl)-1,4-azaphosphinane 4-oxide], the remaining binding at 1 µM at panel of 468 kinases [1] came out at 100%; at panel of 468 kinases [2], 9.7%; at panel of 468 kinases [3], 91%; at panel of 468 kinases [4], 100%; at panel of 468 kinases [5] (RSK2(Kin.Dom.1-N-terminal)), 70%; at panel of 468 kinases [5] (RSK2(Kin.Dom.2-C-terminal)), 34%. Moreover, the remaining binding at 1 µM is 85% on panel of 468 kinases [6]; 100% on panel of 468 kinases [7]; 100% at panel of 468 kinases [8]; 98% on panel of 468 kinases [9]; 31% at panel of 468 kinases [10]; 100% at panel of 468 kinases [11].

Take `CNc1nc(Nc2ccc(S(=O)(=O)N3CCC(N4CCOCC4)CC3)cc2OC)nc2[nH]cc(Cl)c12` [Compound 12, 5-chloro-N2-(2-methoxy-4-((4-morpholinopiperidin-1-yl)sulfonyl)phenyl)-N4-methyl-7H-pyrrolo[2,3-d]pyrimidine-2,4-diamine]: the remaining binding at 1 µM at panel of 468 kinases [1] was 100%; at panel of 468 kinases [2], 72%; at panel of 468 kinases [3], 100%; at panel of 468 kinases [4] it was 100%; at panel of 468 kinases [5] (RSK2(Kin.Dom.1-N-terminal)), 88%; at panel of 468 kinases [5] (RSK2(Kin.Dom.2-C-terminal)), 28%. Further, the remaining binding at 1 µM on panel of 468 kinases [6] turned out to be 100%; on panel of 468 kinases [7], 100%; at panel of 468 kinases [8], 100%; at panel of 468 kinases [9], 100%; on panel of 468 kinases [10] it was 57%; at panel of 468 kinases [11], 100%.
